In US8268823B2, “Medical use of triazine derivatives” (University of Greenwich, priority 2006, dated 2012):
Values joined by “and” are separate entries in the source; they are usually repeats but may differ in a detail not shown here. Identical values can stand only once. Like-named read-outs stand apart in the source and are kept apart here.

Columns and labels:
[1] = test system: 0.4 mm slices of rat hippocampus; assay: hippocampal slice assay: ATP after iodoacetate metabolic insult; settings: for Emax: read-out: Max Protection (% v TTX)
[2] = test system: sodium channel; assay: veratrine-evoked uptake of [14C]guanidine into rat forebrain synaptosomes ([14C]guanidine flux); assay type: biochemical
Method: The screening strategy is designed to select compounds with appropriate sodium channel blocking activity and low side effect liability. To this end all compounds are processed through the primary sodium channel assay (veratrine-evoked uptake of [^14C]guanidine into rat forebrain synaptosomes) and IC50 values computed from generated concentration-effect curves.
Synaptosomes (heavy and light mitochondrial fraction containing synaptosomes) were prepared by transferring the forebrain (of known wet weight) to a glass Potter vessel to which 9 volumes ice-cold 0.25M sucrose had been added and homogenising, using a teflon pestle, by 8 ‘up and down strokes’ of a Braun Potter S motor driven homogeniser set to 900 rpm. The resulting homogenate was centrifuged at 1036×g at 4° for 10 min and the supernatant collected. The remaining pellet was resuspended, as above, in fresh ice-cold 0.25M sucrose and the centrifugation step repeated. The supernatant fractions were pooled and centrifuged at 40,000×g (average) at 4° for 15 min and the resulting pellet resuspended in the appropriate assay buffer at a concentration of 20-25 mg wet weight per ml appropriate assay buffer.
Both assays were carried out using 14 ml polypropylene test tubes to which a range of concentrations of the compounds under test were added.
Compounds under test were pre-incubated for 10 min at 30° in incubation buffer (50 mM pH 7.4 HEPES (adjusted to pH 7.4 with Tris base), 130 mM choline chloride, 5.5 mM D-glucose, 0.8 mm MgSO4 and 5 mM KCl) containing 7.5 mg original wet weight of tissue and 100 μg veratrine HCl in a final volume of 0.5 ml. […] A further 2×5 ml of ice-cold wash buffer was added to each tube and the vacuum filtration step repeated. The GF/C glass fibre filters were transferred to minivials and 4 ml Picofluor^40 liquid scintillant added using a Brandel™ deposit/dispense system. Radioactivity was measured using a Beckman Liquid Scintillation Counter.
(§1) Data are presented as mean±sem of number of experiments indicated in brackets.

[3] = test system: sodium channel; assay type: binding, rat
[4] = target: T1, DiHydroFolate Reductase (DHFR) (Rattus norvegicus, UniProt Q920D2); assay: inhibition of binding of [3H]methotrexate to rat liver homogenate supernatant; settings: for IC50: rat liver supernatant
T1 construct: from tissue; host or cells: rat liver homogenate supernatant (47,500 x g)
T1 sequence (Q920D2 1-187): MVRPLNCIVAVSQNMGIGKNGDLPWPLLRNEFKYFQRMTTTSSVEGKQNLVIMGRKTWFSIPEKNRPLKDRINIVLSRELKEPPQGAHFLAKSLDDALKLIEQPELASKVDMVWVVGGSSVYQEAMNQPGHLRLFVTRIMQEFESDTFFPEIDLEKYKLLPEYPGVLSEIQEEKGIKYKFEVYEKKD
Method: All steps were carried out at 4° (or on ice). Freshly dissected rat liver was dissected into 0.25M ice-cold Sucrose and subsequently homogenised (U-turrax) in 50 mM pH 6.0 phosphate buffer (10 ml/g tissue) containing 15 mM Dithiothreitol. The resulting homogenate was centrifuged @ 47,500×g for 20 min and supernatant (filtered through cotton wool to remove fatty lumps) stored @-80° before use (Rothenberg et al).
The binding reaction was stopped by the addition of 50 μl of a charcoal suspension (consisting of charcoal, Bovine Serum Albumin and Dextran present in a weight ratio of 100:4:1 suspended in 50 mM pH 6.0 phosphate buffer. Samples were vortexed, allowed to stand for 2 minutes and charcoal was precipitated by microcentrifugation @ full speed for 5 min. Aliquots of clear supernatant were transferred to counting vials containing liquid scintillant for measurement of radioactivity using Liquid Scintillation Spectroscopy.
Percentage inhibition values were calculated by comparison to this value.
as §1

[5] = target: T2, hERG potassium channel (Homo sapiens, UniProt Q12809); assay: inhibition of binding of [3H]astemizole to cell membranes expressing hERG; settings: for selectivity ratio: human, cell membranes expressing hERG, probe [3H]astemizole
T2 sequence (Q12809 whole entry): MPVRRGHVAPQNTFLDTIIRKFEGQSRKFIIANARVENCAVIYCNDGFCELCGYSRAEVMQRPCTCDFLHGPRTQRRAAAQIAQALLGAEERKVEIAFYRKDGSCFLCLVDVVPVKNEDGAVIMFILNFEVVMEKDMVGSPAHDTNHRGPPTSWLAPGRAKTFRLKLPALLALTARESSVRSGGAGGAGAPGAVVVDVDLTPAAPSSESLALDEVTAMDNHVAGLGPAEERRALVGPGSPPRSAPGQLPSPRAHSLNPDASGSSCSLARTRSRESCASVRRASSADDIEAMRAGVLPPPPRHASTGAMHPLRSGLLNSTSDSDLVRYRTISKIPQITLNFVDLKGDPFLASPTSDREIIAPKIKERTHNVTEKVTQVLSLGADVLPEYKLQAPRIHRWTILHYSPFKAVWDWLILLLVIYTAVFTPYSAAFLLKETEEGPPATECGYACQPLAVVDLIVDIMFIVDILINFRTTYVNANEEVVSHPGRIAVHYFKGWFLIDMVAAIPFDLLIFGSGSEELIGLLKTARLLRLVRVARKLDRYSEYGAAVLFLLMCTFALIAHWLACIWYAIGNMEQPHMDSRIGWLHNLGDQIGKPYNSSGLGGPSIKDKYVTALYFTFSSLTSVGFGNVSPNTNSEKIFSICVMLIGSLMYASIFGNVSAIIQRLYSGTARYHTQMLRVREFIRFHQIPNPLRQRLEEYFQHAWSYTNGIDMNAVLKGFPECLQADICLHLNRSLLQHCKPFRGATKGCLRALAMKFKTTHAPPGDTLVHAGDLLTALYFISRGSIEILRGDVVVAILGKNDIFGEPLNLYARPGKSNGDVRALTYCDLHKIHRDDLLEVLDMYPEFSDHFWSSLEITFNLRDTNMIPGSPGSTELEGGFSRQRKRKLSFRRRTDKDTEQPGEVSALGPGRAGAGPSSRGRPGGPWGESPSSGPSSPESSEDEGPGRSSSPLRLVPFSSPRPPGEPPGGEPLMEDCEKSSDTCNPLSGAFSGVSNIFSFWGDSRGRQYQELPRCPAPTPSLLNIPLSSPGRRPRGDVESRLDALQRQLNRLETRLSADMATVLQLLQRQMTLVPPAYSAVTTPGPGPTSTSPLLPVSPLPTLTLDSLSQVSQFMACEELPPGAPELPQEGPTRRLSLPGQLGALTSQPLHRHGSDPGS

[6] = target: T2, hERG potassium channel; assay: in vitro
[7] = Rattus norvegicus, read-out: EC50 (max set @ 100)
[8] = Rattus norvegicus, read-out: hippocampal slice EC50 (μM)
[9] = Table 1, mean ± sem (n), read-out: [14C] guanidine uptake (synaptosomes), mean IC50
[10] = Table 3, rat forebrain synaptosomes, read-out: [14C]guanidine flux Mean (IC50: μM)
[11] = Table 5, read-out: [14C]guanidine flux IC50
[12] = Table 1, synaptosomes, mean ± sem (n), read-out: [3H]BTX-B binding (synaptosomes), mean IC50
[13] = Table 4, tissue prep'n Homogenate, read-out: [3H]BTX-B binding Mean (IC50: μM)
[14] = Table 4, tissue prep'n Synaptosomes, read-out: [3H]BTX-B binding Mean (IC50: μM)
[15] = Table 5, Synaptosome data, read-out: [3H]BTX-B IC50
[16] = read-out: [3H]methotrexate binding Inhibition (% @ assay conc'n), assay concentration 10 μM
[17] = read-out: [3H]methotrexate binding Inhibition (% @ assay conc'n), assay concentration 99 μM
[18] = hERG / [3H]BTX-B selectivity, ratio of extrapolated hERG IC50 to [3H]BTX-B IC50 (synaptosomes)
[19] = hERG / [14C]guanidine flux selectivity, ratio of extrapolated hERG IC50 to [14C]guanidine flux IC50

## Nc1nnc(-c2cccc(Cl)c2Cl)c(N)n1 [Example 1, 5(3)-amino-6-(2,3-dichlorophenyl)-2,3(2,5)-dihydro-3(5)-imino-1,2,4-triazine, reference compound]
[1]; [7]
  EC50: 33.1 µM
[1]; Rattus norvegicus
  Emax: 79%
[1]; [8]
  EC50: 30.2 µM
[2]; [9]
  IC50: 186 ± 26.5 µM
[2]; [10]
  IC50: 209 µM
[2]; [11]
  IC50: 209 µM
[2]; Table 8, listed as Lamotrigine
  pIC50 (uptake of [14C]guanidine): 3.75 ± 0.13 and 3.68 ± 0.27
[2]; Table 8, listed as Lamotrigine, read-out: IC50 (μM) (uptake of [14C]guanidine)
  IC50: 178 µM and 209 µM
[3]; [12]
  IC50: 82.6 ± 2.3 µM
[3]; [13]
  IC50: 97.9 µM
[3]; [14]
  IC50: 76.6 µM
[3]; [15]
  IC50: 76.6 µM

## Cn1nc(-c2cccc(Cl)c2Cl)c(N)nc1=N [Example 2, 5-amino-6-(2,3-dichlorophenyl)-2,3-dihydro-3-imino-2-methyl-1,2,4-triazine]
[1]; [7]
  EC50: 37.4 µM
[1]; Rattus norvegicus
  Emax: 98 ± 5%
[1]; [8]
  EC50: 36.3 µM
[4]; [16]
  inhibition at 10 µM: 0%
[4]; [17]
  inhibition at 99 µM: -3%
[2]; [9]
  IC50: 35.9 ± 1.8 µM
[2]; [10]
  IC50: 35.9 µM
[2]; [11]
  IC50: 35.9 µM
[5]
  IC50: 73.3 µM
[6]
  inhibition at 10 µM: 12%
[6]; [18]
  selectivity ratio: 10.2
[6]; [19]
  selectivity ratio: 2
[3]; [12]
  IC50: 7.4 ± 0.4 µM
[3]; [13]
  IC50: 2.5 µM
[3]; [14]
  IC50: 7.2 µM
[3]; [15]
  IC50: 7.2 µM

## CCn1nc(-c2cccc(Cl)c2Cl)c(N)nc1=N [Example 3, 5(3)-Amino-6-(2,3-dichlorophenyl)-2,3(2,5)-dihydro-3(5)-imino-2-ethyl-1,2,4-triazine]
[1]; compared with the effect of 1 μM TTX = 100% protection
  Max Protection (% v TTX): 87.0 % v TTX
[1]; read-out: EC50 (max set @ 100), data re-computed setting max @ 100%
  EC50: 20 µM
[1]; read-out: hippocampal slice EC50, protection of ATP after iodoacetate
  EC50: 16 µM
[4]; assay concentration 10 μM
  [3H]methotrexate binding Inhibition (% @ assay conc'n): 0%
[4]; assay concentration 99 μM
  [3H]methotrexate binding Inhibition (% @ assay conc'n): 1%
[2]; [10]
  IC50: 6.4 µM
[3]; [13]
  IC50: 0.9 µM
[3]; [14]
  IC50: 3.7 µM

## CCCn1nc(-c2cccc(Cl)c2Cl)c(N)nc1=N [Example 6, 5(3)-Amino-6-(2,3-dichlorophenyl)-2,3(2,5)-dihydro-3(5)-imino-2-propyl-1,2,4-triazine]
[1]; [7]
  EC50: 14.5 µM
[1]; Rattus norvegicus
  Emax: 81 ± 27%
[1]; [8]
  EC50: 10.4 µM
[4]; [16]
  inhibition at 10 µM: 0%
[4]; [17]
  inhibition at 99 µM: 2%
[2]; [10]
  IC50: 2.8 µM
[2]; [11]
  IC50: 4.8 µM
[5]
  IC50: 2.8 µM
[6]
  inhibition at 10 µM: 78%
[6]; [18]
  selectivity ratio: 1.3
[6]; [19]
  selectivity ratio: 0.6
[3]; [13]
  IC50: 0.5 µM
[3]; [14]
  IC50: 3.6 µM
[3]; [15]
  IC50: 2.2 µM

## CC(C)Cn1nc(-c2cccc(Cl)c2Cl)c(N)nc1=N [Example 7, 5(3)-Amino-6-(2,3-dichlorophenyl)-2,3(2,5)-dihydro-3(5)-imino-2-isobutyl-1,2,4-triazine methanesulfonate]
[1]; Rattus norvegicus
  Emax: 47 ± 3%
[1]; [8]
  EC50: 1.3 µM
[4]; [16]
  inhibition at 10 µM: -4%
[4]; [17]
  inhibition at 99 µM: -2%
[2]; [10]
  IC50: 2.9 µM
[3]; [14]
  IC50: 1 µM

## CCCCn1nc(-c2cccc(Cl)c2Cl)c(N)nc1=N [Example 8, 5(3)-Amino-6-(2,3-dichlorophenyl)-2,3(2,5)-dihydro-3(5)-imino-2-butyl-1,2,4-triazine]
[1]; Rattus norvegicus
  Emax: 46%
[1]; [8]
  EC50: 10 µM
[4]; [16]
  inhibition at 10 µM: -4%
[4]; [17]
  inhibition at 99 µM: -2%
[2]; [10]
  IC50: 2.1 µM
[3]; [14]
  IC50: 1.7 µM

## N=c1nc(N)c(-c2cccc(Cl)c2Cl)nn1Cc1ccccc1 [Example 9, 5(3)-Amino-6-(2,3-dichlorophenyl)-2,3(2,5)-dihydro-3(5)-imino-2-phenylmethyl-1,2,4-triazine hemi-methanesulfonate]
[1]; [8]
  EC50: > 30 µM
[4]; [16]
  inhibition at 10 µM: 2%
[4]; [17]
  inhibition at 99 µM: -4%
[2]; [10]
  IC50: 4.8 µM
[3]; [14]
  IC50: 2.2 µM

## N=c1nc(N)c(-c2cccc(Cl)c2Cl)nn1Cc1ccoc1 [Example 30, 5(3)-Amino-6-(2,3-dichlorophenyl)-2,3(2,5)-dihydro-3(5)-imino-2-(3-furanylmethyl)-1,2,4-triazine]
[4]
  IC50: > 250 µM
[2]; [10]
  IC50: 4.4 µM
[2]; [11]
  IC50: 4.4 µM
[5]
  IC50: 5.4 µM
  selectivity ratio: 1.2
[6]
  inhibition at 10 µM: 65%
[6]; [18]
  selectivity ratio: 2.1
[3]; [14]
  IC50: 2.6 µM
[3]; [15]
  IC50: 2.6 µM

## Nc1nnc(-c2cc(Cl)cc(Cl)c2Cl)c(N)n1 [Example 31, 6-(2,3,5-trichlorophenyl)-1,2,4-triazine-3,5-diamine]
[1]; [7]
  EC50: 2.2 µM
[1]; Rattus norvegicus
  Emax: 91 ± 4%
[1]; [8]
  EC50: 1.8 µM
[4]
  IC50: 41 ± 4.7 µM
[2]; [10]
  IC50: 16.2 µM
[2]; [11]
  IC50: 16.2 µM
[5]
  IC50: 66.9 µM
[6]
  inhibition at 10 µM: 13%
[6]; [18]
  selectivity ratio: 3.1
[6]; [19]
  selectivity ratio: 4.1
[3]; [14]
  IC50: 21.9 µM
[3]; [15]
  IC50: 21.9 µM

## N=c1nc(N)c(-c2cccc(Cl)c2Cl)nn1CCC(F)(F)F [Example 39, 5(3)-Amino-6-(2,3-dichlorophenyl)-2,3(2,5)-dihydro-3(5)-imino-2-(3,3,3-trifluoropropyl)-1,2,4-triazine]
[4]
  IC50: > 300 µM
[2]; [10]
  IC50: 3.9 µM
[2]; [11]
  IC50: 3.9 µM
[5]
  IC50: 15 µM
  selectivity ratio: 3.8
[6]
  inhibition at 10 µM: 40%
[6]; [18]
  selectivity ratio: 9.4
[3]; [14]
  IC50: 1.6 µM
[3]; [15]
  IC50: 1.6 µM

## CN1CCN(c2ncc(-c3cc(Cl)cc(Cl)c3Cl)c(N)n2)CC1 [Sipatrigine, reference compound]
[1]; [7]
  EC50: 12.6 µM
[1]; Rattus norvegicus
  Emax: 90%
[1]; [8]
  EC50: 10.7 µM
[4]; [16]
  inhibition at 10 µM: 0%
[4]; read-out: [3H]methotrexate binding Inhibition (% @ assay conc'n), assay concentration 198 μM
  inhibition at 198 µM: -6%
[5]
  IC50: 1.5 µM
[6]; hERG % inhibition @ 10 μM
  inhibition at 10 µM: 87%
